Test results published in patent publication US12404241B2 (Celgene Corporation, priority 2018, dated 2025).
Counter-ions that a name gives are not always drawn.

Molecular target: T1, AR (Homo sapiens, UniProt P10275)
T1 construct: endogenous in cells; host or cells: VCaP cells
T1 sequence (P10275 1-920): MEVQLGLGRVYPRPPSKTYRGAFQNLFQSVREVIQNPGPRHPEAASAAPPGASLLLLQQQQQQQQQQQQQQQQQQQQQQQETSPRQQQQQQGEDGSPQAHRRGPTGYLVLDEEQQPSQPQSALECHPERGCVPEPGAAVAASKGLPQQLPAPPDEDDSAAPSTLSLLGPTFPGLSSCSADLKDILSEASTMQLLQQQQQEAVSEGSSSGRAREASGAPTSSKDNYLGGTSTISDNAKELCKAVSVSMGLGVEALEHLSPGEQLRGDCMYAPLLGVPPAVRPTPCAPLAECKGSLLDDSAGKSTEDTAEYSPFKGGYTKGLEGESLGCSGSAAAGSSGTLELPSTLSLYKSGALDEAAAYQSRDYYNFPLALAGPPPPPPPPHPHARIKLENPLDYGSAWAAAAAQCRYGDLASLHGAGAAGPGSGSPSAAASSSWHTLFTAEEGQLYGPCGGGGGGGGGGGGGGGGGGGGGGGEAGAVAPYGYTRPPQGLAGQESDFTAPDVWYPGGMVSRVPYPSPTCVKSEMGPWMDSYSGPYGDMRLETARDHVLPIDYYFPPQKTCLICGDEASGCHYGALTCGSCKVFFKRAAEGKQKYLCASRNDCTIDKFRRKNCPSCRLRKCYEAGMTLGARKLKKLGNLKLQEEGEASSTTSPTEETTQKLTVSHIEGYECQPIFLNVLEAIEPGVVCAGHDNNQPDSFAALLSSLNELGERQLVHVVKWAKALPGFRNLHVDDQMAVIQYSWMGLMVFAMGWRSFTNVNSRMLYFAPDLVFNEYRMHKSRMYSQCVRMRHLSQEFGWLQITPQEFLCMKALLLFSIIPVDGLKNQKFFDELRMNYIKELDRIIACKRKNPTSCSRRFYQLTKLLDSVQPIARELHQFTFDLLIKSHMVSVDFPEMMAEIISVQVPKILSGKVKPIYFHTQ
Test: VCAP AR Degradation Assay
Assay type: cell-based
Settings: for Y (AR degradation efficiency, % of DMSO control): class symbols *; for DC50: class symbols A-C, read-out: DC50
Outline: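 24 h, 37 °C, VCaP (DMEM/8% FBS), 10-pt 1:3 dilutions from 5 μM final top, 0.1% DMSO ctrl. Lysis on ice/4 °C 1 h; total AR by sandwich ELISA, normalized to DMSO. 4PL fit → DC50, EC50, Y (min AR level).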

SMILES | Y (AR degradation efficiency, % of DMSO control) | DC50 [nM]
CC(C)c1cc(N2C(=S)N(c3cnc(C#N)c(C(F)(F)F)c3)C(=O)C23CCC3)ccc1OCCN1C[C@@H](C)N(CC(=O)Nc2cc(C#N)cc(NC3CCC(=O)NC3=O)c2)[C@@H](C)C1 (stereo partly drawn) [Example 210, N-(3-cyano-5-(2,6-dioxopiperidin-3-ylamino)phenyl)-2-((2S,6R)-4-(2-(4-(7-(6-cyano-5-(trifluoromethyl)pyridin-3-yl)-8-oxo-6-thioxo-5,7-diazaspiro[3.4]octan-5-yl)-2-isopropylphenoxy)ethyl)-2,6-dimethylpiperazin-1-yl)acetamide] | * (0<Y<=25%) | < 100
CC(C)c1cc(N2C(=S)N(c3cnc(C#N)c(C(F)(F)F)c3)C(=O)C2(C)C)ccc1OCCN1CCN(CC(=O)Nc2cccc(NC3CCC(=O)NC3=O)c2)[C@H](C)C1 (stereo partly drawn) [Example 163, 2-((R)-4-(2-(4-(3-(6-cyano-5-(trifluoromethyl)pyridin-3-yl)-5,5-dimethyl-4-oxo-2-thioxoimidazolidin-1-yl)-2-isopropylphenoxy)ethyl)-2-methylpiperazin-1-yl)-N-(3-(2,6-dioxopiperidin-3-ylamino)phenyl)acetamide] | * (0<Y<=25%) | 100 to 500
CC1(C)C(=O)N(c2ccc(C#N)c(C(F)(F)F)c2)C(=S)N1c1ccc(OCCN2CCN(CC(=O)Nc3cc(Cl)cc(NC4CCC(=O)NC4=O)c3)CC2)c(CC(F)F)c1 (stereo not drawn) [Example 159, N-(3-chloro-5-(2,6-dioxopiperidin-3-ylamino)phenyl)-2-(4-(2-(4-(3-(4-cyano-3-(trifluoromethyl)phenyl)-5,5-dimethyl-4-oxo-2-thioxoimidazolidin-1-yl)-2-(2,2-difluoroethyl)phenoxy)ethyl)piperazin-1-yl)acetamide] | * (0<Y<=25%) | < 100
CC1(C)C(=O)N(c2ccc(C#N)c(C(F)(F)F)c2)C(=S)N1c1ccc(OCCN2CCN(CC(=O)Nc3cccc(NC4CCC(=O)NC4=O)c3)CC2)c(F)c1 (stereo not drawn) [Example 1, formate] | *** (35%<Y<50%) | < 100
CCc1cc(N2C(=S)N(c3ccc(C#N)c(C(F)(F)F)c3)C(=O)C2(C)C)c(C)cc1OCCN1C[C@@H](C)N(CC(=O)Nc2cccc(NC3CCC(=O)NC3=O)c2)[C@@H](C)C1 (stereo partly drawn) [Example 254, 2-((2S,6R)-4-(2-(4-(3-(4-cyano-3-(trifluoromethyl)phenyl)-5,5-dimethyl-4-oxo-2-thioxoimidazolidin-1-yl)-2-ethyl-5-methylphenoxy)ethyl)-2,6-dimethylpiperazin-1-yl)-N-(3-(2,6-dioxopiperidin-3-ylamino)phenyl)acetamide] | * (0<Y<=25%) | < 100
CCc1cc(N2C(=S)N(c3ccc(C#N)c(C(F)(F)F)c3)C(=O)C2(C)C)ccc1CCCN1C[C@@H](C)N(CC(=O)Nc2cccc(NC3CCC(=O)NC3=O)c2)C[C@H]1C (stereo partly drawn) [Example 273, 2-((2R,5R)-4-(3-(4-(3-(4-cyano-3-(trifluoromethyl)phenyl)-5,5-dimethyl-4-oxo-2-thioxoimidazolidin-1-yl)-2-ethylphenyl)propyl)-2,5-dimethylpiperazin-1-yl)-N-(3-(2,6-dioxopiperidin-3-ylamino)phenyl)acetamide] | * (0<Y<=25%) | < 100
CCc1cc(N2C(=S)N(c3ccc(C#N)c(C(F)(F)F)c3)C(=O)C2(C)C)ccc1OCCN1CCN([C@H](C)C(=O)Nc2cccc(NC3CCC(=O)NC3=O)c2)CC1 (stereo partly drawn) [Example 58, (2R)-2-(4-(2-(4-(3-(4-cyano-3-(trifluoromethyl)phenyl)-5,5-dimethyl-4-oxo-2-thioxoimidazolidin-1-yl)-2-ethylphenoxy)ethyl)piperazin-1-yl)-N-(3-(2,6-dioxopiperidin-3-ylamino)phenyl)propanamide] | * (0<Y<=25%) | < 100
C[C@@H]1CN(CCOc2ccc(N3C(=S)N(c4cnc(C#N)c(C(F)(F)F)c4)C(=O)C34CCC4)cc2C(C)(F)F)C[C@H](C)N1CC(=O)Nc1cccc(NC2CCC(=O)NC2=O)c1 (stereo partly drawn) [Example 265, 2-((2S,6R)-4-(2-(4-(7-(6-cyano-5-(trifluoromethyl)pyridin-3-yl)-8-oxo-6-thioxo-5,7-diazaspiro[3.4]octan-5-yl)-2-(1,1-difluoroethyl)phenoxy)ethyl)-2,6-dimethylpiperazin-1-yl)-N-(3-(2,6-dioxopiperidin-3-ylamino)phenyl)acetamide] | * (0<Y<=25%) | < 100
CCc1cc(N2C(=S)N(c3ccc(C#N)c(C(F)(F)F)c3)C(=O)C2(C)C)ccc1CCCN1CCN(CC(=O)Nc2cc(Cl)cc(NC3CCC(=O)NC3=O)c2)CC1 (stereo not drawn) [Example 89, N-(3-chloro-5-(2,6-dioxopiperidin-3-ylamino)phenyl)-2-(4-(3-(4-(3-(4-cyano-3-(trifluoromethyl)phenyl)-5,5-dimethyl-4-oxo-2-thioxoimidazolidin-1-yl)-2-ethylphenyl)propyl)piperazin-1-yl)acetamide] | * (0<Y<=25%) | < 100
CCc1cc(N2C(=S)N(c3ccc(C#N)c(C(F)(F)F)c3)C(=O)C2(C)C)ccc1OCCN1C[C@H](C)N(CC(=O)Nc2cc(Cl)cc(NC3CCC(=O)NC3=O)c2)[C@@H](C)C1 (stereo partly drawn) [Example 147, N-(3-chloro-5-(2,6-dioxopiperidin-3-ylamino)phenyl)-2-((2S,6S)-4-(2-(4-(3-(4-cyano-3-(trifluoromethyl)phenyl)-5,5-dimethyl-4-oxo-2-thioxoimidazolidin-1-yl)-2-ethylphenoxy)ethyl)-2,6-dimethylpiperazin-1-yl)acetamide] | * (0<Y<=25%) | < 100
CCc1cc(N2C(=S)N(c3ccc(C#N)c(C(F)(F)F)c3)C(=O)C23CCC3)ccc1OCCN1CCN(CC(=O)Nc2cc(Cl)cc(NC3CCC(=O)NC3=O)c2)[C@H](C)C1 (stereo partly drawn) [Example 103, N-(3-chloro-5-(2,6-dioxopiperidin-3-ylamino)phenyl)-2-((R)-4-(2-(4-(7-(4-cyano-3-(trifluoromethyl)phenyl)-8-oxo-6-thioxo-5,7-diazaspiro[3.4]octan-5-yl)-2-ethylphenoxy)ethyl)-2-methylpiperazin-1-yl)acetamide] | * (0<Y<=25%) | < 100
CCc1cc(N2C(=S)N(c3ccc(C#N)c(C(F)(F)F)c3)C(=O)C2(C)C)ccc1OCCN1C[C@H](C)N(CC(=O)Nc2cccc(NC3CCC(=O)NC3=O)c2)C[C@H]1C (stereo partly drawn) [Example 122, 2-((2S,5R)-4-(2-(4-(3-(4-cyano-3-(trifluoromethyl)phenyl)-5,5-dimethyl-4-oxo-2-thioxoimidazolidin-1-yl)-2-ethylphenoxy)ethyl)-2,5-dimethylpiperazin-1-yl)-N-(3-(2,6-dioxopiperidin-3-ylamino)phenyl)acetamide] | ** (25%<Y<=35%) | 100 to 500
CCc1cc(N2C(=S)N(c3ccc(C#N)c(C(F)(F)F)c3)C(=O)C2(C)C)ccc1OCCN1C[C@@H](C)N(CC(=O)Nc2cccc(N[C@H]3CCC(=O)NC3=O)c2)[C@@H](C)C1 [Example 285, 2-((2R,6S)-4-(2-(4-(3-(4-cyano-3-(trifluoromethyl)phenyl)-5,5-dimethyl-4-oxo-2-thioxoimidazolidin-1-yl)-2-ethylphenoxy)ethyl)-2,6-dimethylpiperazin-1-yl)-N-(3-((S)-2,6-dioxopiperidin-3-ylamino)phenyl)acetamide] | * (0<Y<=25%) | < 100
CC(F)(F)c1cc(N2C(=S)N(c3cnc(C#N)c(C(F)(F)F)c3)C(=O)C2(C)C)ccc1OCCN1CCN(CC(=O)Nc2cccc(NC3CCC(=O)NC3=O)c2)CC1 (stereo not drawn) [Example 60, 2-(4-(2-(4-(3-(6-cyano-5-(trifluoromethyl)pyridin-3-yl)-5,5-dimethyl-4-oxo-2-thioxoimidazolidin-1-yl)-2-(1,1-difluoroethyl)phenoxy)ethyl)piperazin-1-yl)-N-(3-(2,6-dioxopiperidin-3-ylamino)phenyl)acetamide] | * (0<Y<=25%) | < 100
CC(C)c1cc(N2C(=S)N(c3ccc(C#N)c(Cl)c3)C(=O)C2(C)C)ccc1OCCN1C[C@@H](C)N(CC(=O)Nc2cc(F)cc(NC3CCC(=O)NC3=O)c2)[C@@H](C)C1 (stereo partly drawn) [Example 251, 2-((2S,6R)-4-(2-(4-(3-(3-chloro-4-cyanophenyl)-5,5-dimethyl-4-oxo-2-thioxoimidazolidin-1-yl)-2-isopropylphenoxy)ethyl)-2,6-dimethylpiperazin-1-yl)-N-(3-(2,6-dioxopiperidin-3-ylamino)-5-fluorophenyl)acetamide] | * (0<Y<=25%) | < 100
